Each structure is given as a SMILES string.

A short description of test [1]: Antirachitogenic increase in tibia ash in chicks on vitamin D-deficient diet. In kind it is in vivo, chick (White Leghorn cockerels). The note with it: 27 ng, orally, 21 consecutive days. As to the method: **Oneday-old White Leghorn cockerels were placed on a vitamin Ddeficient
diet which contained 1% calcium and 0.7% phosphorus and were housed under
ultravioletfree lighting (General Electric F40G0 gold fluorescent lights)
The test compound was dissolved in propylene glycol and administered
orally in a volume of 0.2 ml/day for 21 consecutive days. Controls were
treated with vehicle alone. Chicks were autopsied on the day after the […]

Another test has as its system HL-60 cells. The test can be described thus: Differentiation of HL-60 cells by nitroblue tetrazolium (NBT) reduction. The following applies: Homo sapiens, 96 h; HL-60 cells, NBT test; read-out: HL-60 Test Differentiation NBT Test ED50. It counts as cell-based, human (patient). As to the method: Cultures of HL-60 cells were established in the absence (control) or presence of various concentrations of the test compound. […] Proliferation was assessed by directly enumerating the increased number of tumor cells resulting from incubation. Viability was determined by dye exclusion technique to learn whether any of the compounds were lethal to cultured HL-60 cells. Cellular differentiation was evaluated by determining the number of cells which had acquired the enzymes necessary to support a respiratory burst and the functional ability to phagocytose (bind/internalize) particulate material from their environment; both activities being characteristic of mature macrophages and granulocytes,
Experimental compounds were dissolved in sufficient ethanol to yield stock solutions of 1×10^-2 molar. Reduced lighting was employed when working with compounds and stock solutions were stored in the dark at -20° in an argon atmosphere. Compounds were diluted with tissue culture medium and added to flasks containing HL-60 cells to achieve the final concentrations described in each experiment.
The promyelocytic (HL-60) tumor cell line was derived from a patient with acute promyelocytic leukemia. HL-60 cells were maintained in liquid culture by serial weekly passage in tissue culture medium. In any experiment, three replicate flasks were incubated without compound (control) or in the presence of varying concentrations of compound. […]
Quantitation of differentiated cells was done by the biochemical method of nitroblue tetrazolium (NBT) reduction. Sufficient cells were pooled from replicate cultures, centrifuged at 220×g, washed once with serum-free tissue culture medium, and resuspended to 1×10^6 cells per ml in Ca^++ --Mg^++ -deficient phosphate buffered saline (prepared by supplementing Ca^++ --Mg^++ -free phosphate buffered saline (PBS) to 10% v/v with heat-inactivated fetal bovine serum). Nitroblue tetrazolium was dissolved at 1 mg per ml in Ca^++ --Mg^++ -deficient PBS with gentle heating and mixing. Tetradecanoyl phorbol acetate (TPA) was dissolved at 1 mg per ml in ethanol and stored at -20° C. Just prior to use, a working solution of TPA was prepared by diluting the stock concentration 100-fold with Ca^++ --Mg^++ -deficient PBS. The test was done in 12×75 mm tubes by adding 0.5 ml Ca^++ --Mg^++ -deficient PBS, 1.0 ml of HL-60 cells, 0.5 ml of NBT solution, and 0.02 ml of the working TPA solution. After mixing, the tubes were incubated in a 37° water bath for 25 minutes then transferred to ice. Undifferentiated and differentiated cells present in any sample were determined microscopically by surveying 200-400 cells per sample or by cytofluorograph by surveying greater than 30,000 cells. Cells without pigmented granules (clear cells) were judged to be undifferentiated while those containing greater than 3 blue-black formazan granules were scored as differentiated. […] Results are expressed as the percentage of differentiated cells present in any sample as calculated according to the formula: [formula]

Regarding `C=C1/C(=C\C=C2/CCC[C@]3(C)[C@@H]([C@H](C)CCCC(C)(C)O)CC[C@@H]23)C[C@@H](O)C[C@@H]1O` [1α,25-Dihydroxycholecalciferol, reference compound], in test [1], the “Antirachitogenic Increase in Tibia Ash in Chicks” value is 61%. Moreover, the EC50 in the test on HL-60 cells amounted to 12 nM.

(Values after patent US4594340A, “25,26-dehydro-1α,24R-dihydroxycholecalciferol and 25,26-dehydro-1α,24S-dihydroxycholecalciferol and the epimeric mixture” (Hoffmann-La Roche Inc., priority 1984, dated 1986).)
